Where a name gives a salt, the structure may show the parent alone.
Assays:
[1] = target: T1, human dopamine transporter (Homo sapiens, UniProt Q01959); experiment: Inhibitory action on human dopamine transporter ([3H]-dopamine uptake in CHO cells); type: cell-based; settings: CHO, relative to inhibitory activity of 100 μM Nomifensine as 100%, read-out: inhibitory rate (%); for inhibition at 1 µM: compound 1 μM
T1 construct: expressed in transfected cells
How it was run: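 CHO-K1 cells stably expressing human dopamine transporter, exposed to compound at 10 μM or 1 μM in HEPES-buffered saline with 0.5% BSA. [3H]-dopamine uptake measured over 60 min by scintillation counting. Activity expressed relative to 100 μM nomifensine as 100%.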

[2] = target: T2, human serotonin transporter (Homo sapiens, UniProt P31645); experiment: Inhibitory action on human serotonin transporter ([3H]-5-hydroxytryptamine uptake in CHO cells); type: cell-based; settings: CHO, relative to inhibitory activity of 10 μM Paroxetine as 100%, read-out: inhibitory rate (%); for inhibition at 1 µM: compound 1 μM
T2 construct: expressed in transfected cells
How it was run: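 CHO-K1 cells stably expressing human SERT, plated overnight, took up [3H]-5-HT (diluted to 200 nM before a 1:10 addition) for 20 min in HEPES-buffered saline with glucose and 0.5% BSA; radioactivity counted by scintillation. Compounds at 10 μM or 1 μM, activity expressed relative to 10 μM paroxetine set as 100%.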

T1 sequence (Q01959 whole entry): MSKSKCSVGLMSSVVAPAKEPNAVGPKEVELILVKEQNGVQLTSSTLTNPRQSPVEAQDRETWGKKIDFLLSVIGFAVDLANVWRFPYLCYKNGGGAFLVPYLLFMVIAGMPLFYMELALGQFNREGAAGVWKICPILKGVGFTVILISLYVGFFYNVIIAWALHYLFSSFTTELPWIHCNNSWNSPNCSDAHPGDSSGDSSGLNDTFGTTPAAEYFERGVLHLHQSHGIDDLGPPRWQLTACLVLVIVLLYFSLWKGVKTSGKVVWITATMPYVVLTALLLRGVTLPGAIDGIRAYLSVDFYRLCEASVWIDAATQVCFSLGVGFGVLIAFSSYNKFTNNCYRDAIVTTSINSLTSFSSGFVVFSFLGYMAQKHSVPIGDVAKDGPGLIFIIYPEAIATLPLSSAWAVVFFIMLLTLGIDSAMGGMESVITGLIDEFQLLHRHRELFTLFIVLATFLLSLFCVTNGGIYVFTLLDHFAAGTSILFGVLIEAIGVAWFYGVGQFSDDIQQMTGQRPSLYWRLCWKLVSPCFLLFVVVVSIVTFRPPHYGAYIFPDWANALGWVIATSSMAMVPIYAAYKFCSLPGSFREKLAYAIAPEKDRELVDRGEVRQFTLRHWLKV
T2 sequence (P31645 whole entry): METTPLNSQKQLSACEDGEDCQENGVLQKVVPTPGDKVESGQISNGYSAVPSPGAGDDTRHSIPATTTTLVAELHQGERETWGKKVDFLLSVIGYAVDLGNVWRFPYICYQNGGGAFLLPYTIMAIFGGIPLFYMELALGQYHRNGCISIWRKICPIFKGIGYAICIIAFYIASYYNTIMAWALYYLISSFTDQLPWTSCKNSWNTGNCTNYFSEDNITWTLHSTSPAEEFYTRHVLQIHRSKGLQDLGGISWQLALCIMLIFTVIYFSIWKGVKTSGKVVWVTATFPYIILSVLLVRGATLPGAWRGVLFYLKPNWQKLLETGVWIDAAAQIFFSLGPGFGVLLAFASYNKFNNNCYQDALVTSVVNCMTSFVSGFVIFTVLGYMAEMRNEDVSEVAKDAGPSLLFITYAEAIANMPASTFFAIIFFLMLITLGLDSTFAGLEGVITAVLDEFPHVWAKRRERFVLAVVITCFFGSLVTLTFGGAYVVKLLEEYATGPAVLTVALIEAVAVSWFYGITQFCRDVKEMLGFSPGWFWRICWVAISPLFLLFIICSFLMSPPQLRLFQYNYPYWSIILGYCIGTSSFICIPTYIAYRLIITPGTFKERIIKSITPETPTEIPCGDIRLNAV

Row | Compound | inhibition at 1 µM [1] | inhibition at 1 µM [2] | inhibition at 10 µM ([1]; compound 10 μM) | inhibition at 10 µM ([2]; compound 10 μM, CHO cells expressing human serotonin transporter)
1 | O=c1[nH]c(-c2cccnc2O[C@@H]2CNCCO[C@H]2c2ccc(Cl)c(F)c2)no1 [Example 556, 3-(2-{[(6R,7S)-7-(4-chloro-3-fluorophenyl)-1,4-oxazepan-6-yl]oxy}pyridin-3-yl)-1,2,4-oxadiazol-5(4H)-one monohydrochloride] | 71% | 77% |  | 
2 | CC(=O)N[C@@H]1CNCCO[C@H]1c1ccc(Cl)c(Cl)c1 [Example 36, N-[(6R,7S)-7-(3,4-dichlorophenyl)-1,4-oxazepan-6-yl]acetamide monofumarate] | 53% | 69% |  | 
3 | O=C(O)c1cccn(C[C@@H]2CNCCO[C@H]2c2ccc(Cl)c(F)c2)c1=O [Example 44, 1-{[(6S,7R)-7-(4-chloro-3-fluorophenyl)-1,4-oxazepan-6-yl]methyl}-2-oxo-1,2-dihydropyridine-3-carboxylic acid monohydrochloride] | 8% | 40% |  | 
4 | CC(=O)NC[C@@H]1CNCCO[C@H]1c1ccc(Cl)c(Cl)c1 [Example 32, N-{[(6S,7R)-7-(3,4-dichlorophenyl)-1,4-oxazepan-6-yl]methyl}acetamide 0.5 fumarate] | 34% | 84% |  | 
5 | O=c1[nH]c(-c2cccn(C[C@@H]3CNCCO[C@H]3c3ccc(Cl)c(F)c3)c2=O)no1 [Example 43, 1-{[(6S,7R)-7-(4-chloro-3-fluorophenyl)-1,4-oxazepan-6-yl]methyl}-3-(5-oxo-4,5-dihydro-1,2,4-oxadiazol-3-yl)pyridin-2(1H)-one monohydrochloride] | 15% | 72% |  | 
6 | O=c1[nH]c(-c2cccn(C[C@@H]3CNCCO[C@H]3c3ccc(Cl)c(Cl)c3)c2=O)no1 [Example 31, 1-{[(6S,7R)-7-(3,4-dichlorophenyl)-1,4-oxazepan-6-yl]methyl}-3-(5-oxo-4,5-dihydro-1,2,4-oxadiazol-3-yl)pyridin-2(1H)-one monohydrochloride] | 33% | 95% |  | 
7 | O=c1[nH]c(-c2ncccc2O[C@@H]2CNCCO[C@H]2c2ccc(Cl)c(F)c2)no1 [Example 584, 3-(3-{[(6R, 7S)-7-(4-chloro-3-fluorophenyl)-1,4-oxazepan-6-yl]oxy}pyridin-2-yl)-1,2,4-oxadiazol-5(4H)-one] | 57% | 41% |  | 
8 | OC[C@H](O)[C@@H]1OCCNC[C@H]1c1ccc(Cl)c(Cl)c1 [Example 45, (1S)-1-[(6R,7R)-6-(3,4-dichlorophenyl)-1,4-oxazepan-7-yl]ethane-1,2-diol monohydrochloride] | 52% | 36% |  | 
9 | O=c1[nH]c(-c2ccccc2O[C@@H]2CNCCO[C@H]2c2ccc(Cl)c(F)c2)no1 [Example 577, 3-(2-{[(6R, 7S)-7-(4-chloro-3-fluoro-phenyl)-1,4-oxazepan-6-yl]oxy}phenyl)-1,2,4-oxadiazol-5(4H)-one] | 53% | 53% |  | 
10 | CC(=O)NC[C@H]1CNCCO[C@@H]1c1ccc(Cl)c(Cl)c1 (racemic) [Example 6, N-{[(6RS,7SR)-7-(3,4-dichlorophenyl)-1,4-oxazepan-6-yl]methyl}acetamide monohydrochloride] | 33% | 84% | 84% | 98%

The next lines start with results.

Row | inhibition at 1 µM [1] | inhibition at 1 µM [2] | Compound | inhibition at 10 µM ([1]; compound 10 μM) | inhibition at 10 µM ([2]; compound 10 μM, CHO cells expressing human serotonin transporter)
11 | 51% | 71% | NS(=O)(=O)N[C@@H]1CNCCO[C@H]1c1ccc(Cl)c(Cl)c1 [Example 37, N-[(6R,7S)-7-(3,4-dichlorophenyl)-1,4-oxazepan-6-yl]sulfamide monohydrochloride] |  | 
12 | 17% | 58% | [2H]C([2H])([2H])OCC(=O)NC[C@@H]1CNCCO[C@H]1c1ccc(Cl)c(F)c1 [Example 39, N-{[(6S,7R)-7-(4-chloro-3-fluorophenyl)-1,4-oxazepan-6-yl]methyl}-2-[(^2H3)methyloxy]acetamide monohydrochloride] |  | 
13 | 11% | 69% | COCC(=O)NC[C@@H]1CNCCO[C@H]1c1ccc(Cl)c(F)c1 [Example 38, N-{[(6S,7R)-7-(4-chloro-3-fluorophenyl)-1,4-oxazepan-6-yl]methyl}-2-methoxyacetamide monohydrochloride] |  | 
14 | 35% | 92% | COCC(=O)NC[C@@H]1CNCCO[C@H]1c1ccc(Cl)c(Cl)c1 [Example 33, N-{[(6S,7R)-7-(3,4-dichlorophenyl)-1,4-oxazepan-6-yl]methyl}-2-methoxyacetamide monohydrochloride] |  | 
15 | 9% | 80% | CCOCC(=O)NC[C@@H]1CNCCO[C@H]1c1ccc(Cl)c(F)c1 [Example 40, N-{[(6S,7R)-7-(4-chloro-3-fluorophenyl)-1,4-oxazepan-6-yl]methyl}-2-ethoxyacetamide monohydrochloride] |  | 
16 | 11% | 70% | CC(C)OCC(=O)NC[C@@H]1CNCCO[C@H]1c1ccc(Cl)c(F)c1 [Example 41, N-{[(6S,7R)-7-(4-chloro-3-fluorophenyl)-1,4-oxazepan-6-yl]methyl}-2-(1-methylethoxy)acetamide monohydrochloride] |  | 
